The numbers were not newly measured in patent publication US20210319872A1, “DRUG AND DEVICE COMBINATION PRODUCTS WITH IMPROVED SAFETY AND EFFICACY PROFILES” (priority 2016, published 2021), which cites them from elsewhere.

The structures appear in SMILES notation.

For the data set the following is noted: in vivo.

As to `CCOC(=O)C1=C(COCCN)NC(C)=C(C(=O)OC)C1c1ccccc1Cl` (stereo not drawn) [Amlodipine (Norvasc, Lotrel)], the Abdominal pain result is “Gastrointestinal: Abdominal pain (1.6%), Nausea (2.9%.)”; the Dizziness entry was “Neurologic: Dizziness (Up to 3.4%), Headache (7.3%),”; the Fatigue entry was “Other: Fatigue (4.5%)”; the Flushing result is listed as “Cardiovascular: Flushing (0.7% to 2.6%), Palpitations (Up to”. In addition, the Headache result is “Neurologic: Dizziness (Up to 3.4%), Headache (7.3%),”; the Nausea entry is listed as “Gastrointestinal: Abdominal pain (1.6%), Nausea (2.9%.)”; the Palpitations is reported as ≤ 4.5%), Peripheral edema (Up to 10.8%); the Peripheral edema is given as ≤ 4.5%), Peripheral edema (Up to 10.8%). Besides, the Somnolence result was “Somnolence (1.4%)”.
For `CCCN(CCC)CCc1cccc2c1CC(=O)N2` [Ropinirole (Requip)], the Abdominal pain entry is reported as “Gastrointestinal: Abdominal pain (6% to 7%), Constipation (4% to”; the Constipation result is listed as “Gastrointestinal: Abdominal pain (6% to 7%), Constipation (4% to”; the Dyskinesia result is given as “syndrome, 11%), Dyskinesia (13% to 34%), Headache (6%),”; the Fatigue result is listed as “Other: Fatigue (8% to 11%)”. For the same molecule, the Hallucinations entry is recorded as “Psychiatric: Hallucinations (5% to 10%)”; the Headache result was “syndrome, 11%), Dyskinesia (13% to 34%), Headache (6%),”; the Hypotension result is reported as “Cardiovascular: Hypotension (2% to 25%), Orthostatic hypotension”; the Nausea is given as 5%), Nausea (11% to 60%), Vomiting (7% to 12%). In addition, the Orthostatic hypotension result was “(Up to 23%)”; the Syncope entry is recorded as “disease, 1% to 12%; restless leg syndrome, 1%)”; the Vomiting is given as 5%), Nausea (11% to 60%), Vomiting (7% to 12%).
As for `COC(=O)[C@H](c1ccccc1Cl)N1CCc2sccc2C1` [Clopidogrel (Plavix ®)], the Agranulocytosis result is “Hematologic: Agranulocytosis (Less than 1%), Aplastic anemia”; the Aplastic anemia entry was “(less then 1%), Bleeding, Major (0.8% to 3.7%), Pancytopenia”; the “Bleeding, Major” value is “(less then 1%), Bleeding, Major (0.8% to 3.7%), Pancytopenia”; the “Bleeding, Non-major” value is recorded as “Hematologic: Bleeding, Non-major (3.6% to 5.1%)”. The Gastrointestinal hemorrhage result is on record as “Gastrointestinal: Colitis, Gastrointestinal hemorrhage (2%; 2.7%” and the Intraocular hemorrhage result was “Ophthalmic: Intraocular hemorrhage (0.05%)”.
`CCCCC(=O)N(Cc1ccc(-c2ccccc2-c2nnn[nH]2)cc1)[C@H](C(=O)O)C(C)C` [Valsartan (Diovan)]: the “Common side effects, listed without incidence” value is listed as “Respiratory: Cough”; the Dizziness entry is given as “Neurologic: Dizziness (2% to 17%), Headache (greater than 1%)”; the Headache entry is recorded as “Neurologic: Dizziness (2% to 17%), Headache (greater than 1%)”; the Hypotension result is listed as “Cardiovascular: Hypotension (5.5% to 6.9%)”. Besides, the “Serum blood urea nitrogen raised” value is “Renal: Serum blood urea nitrogen raised (heart failure, 16.6%),”.
For `C[C@H](CS)C(=O)N1CCC[C@H]1C(=O)O` [Captopril (Capoten)], the Agranulocytosis entry is “Hematologic: Agranulocytosis (0.1% to 0.2%), Neutropenia (0.1%”; the Angioedema entry is listed as “Other: Angioedema (0.1%)”; the Cough entry was “Respiratory: Cough (0.5% to 2%)”; the Hyperkalemia entry is reported as “Endocrine metabolic: Hyperkalemia (11%)”. The Neutropenia result was “Hematologic: Agranulocytosis (0.1% to 0.2%), Neutropenia (0.1%”.
For `CNCC[C@H](Oc1cccc2ccccc12)c1cccs1` [Duloxetine (Cymbalta)], the Constipation result is “Gastrointestinal: Constipation (9% to 10%), Decrease in appetite”; the Diaphoresis result was “Dermatologic: Diaphoresis (Adult, 6%; pediatric, less than 2%)”; the Diarrhea result was “(6% to 10%), Diarrhea (Adult, 9%; pediatric, 6%), Nausea (18% to”; the Dizziness entry is listed as “Neurologic: Asthenia, Dizziness (Adult, 9%; pediatric, 8%),”. In addition, the Headache entry was “Headache (Adult, 13% to 14%; pediatric, 18%), Hypersomnia,”; the Hypertension entry is listed as “Cardiovascular: Hypertension (2%)”; the Insomnia entry is listed as “Insomnia (7% to 10%), Sedated, Somnolence”; the Myocardial infarction entry was “Cardiovascular: Hypertensive crisis, Myocardial infarction (0.01%”. Further, the Xerostomia is 23%), Xerostomia (Adult, 11% to 14%; pediatric, 2%).
On to `CC(C)(C)NCC(O)COc1cccc2c1CCC(=O)N2` (stereo not drawn) [Carteolol (Cartrol)], for which the Asthenia result is “Neurologic: Asthenia (7%.), Dizziness (4% to 15%.), Headache”; the “Burning sensation in eye” value was “Ophthalmic: Blurred vision, Burning sensation in eye (25%),”; the Conjunctival edema entry was “Conjunctival edema (25%), Conjunctival hyperemia (25%),”; the Conjunctival hyperemia entry is reported as “Conjunctival edema (25%), Conjunctival hyperemia (25%),”. Besides, the Dizziness result is “Neurologic: Asthenia (7%.), Dizziness (4% to 15%.), Headache”; the Epiphora result is “Epiphora (25%), Eye irritation (25%)”; the Eye irritation entry is reported as “Epiphora (25%), Eye irritation (25%)”; the Headache result is recorded as “(4% to 17%.), Insomnia (2% to 12%.)”. The Insomnia result is reported as “(4% to 17%.), Insomnia (2% to 12%.)”.
`O=C(NC[C@H]1CN(c2ccc(N3CCOCC3=O)cc2)C(=O)O1)c1ccc(Cl)s1` [Rivaroxaban (Xarelto)]: the Gastrointestinal hemorrhage entry is recorded as “fibrillation, 3.1%)” and the Syncope result is on record as “Cardiovascular: Syncope (1.2%)”.
For `CC(NC(C)(C)C)C(=O)c1cccc(Cl)c1` (stereo not drawn) [Bupropion (Wellbutrin)], the Abdominal pain entry was “Gastrointestinal: Abdominal pain (2% to 9%), Constipation (5% to”; the Agitation entry was “Psychiatric: Agitation (2% to 9%)”; the Confusion result is “Neurologic: Confusion (major depressive disorder, 8%), Dizziness”; the Dizziness result is recorded as “(6% to 11%), Headache (25% to 34%), Insomnia (11% to 20%)”. For the same molecule, the Headache entry is reported as “(6% to 11%), Headache (25% to 34%), Insomnia (11% to 20%)”; the Hostile behavior entry was “Hallucinations, Hostile behavior (major depressive disorder, 6%),”; the Insomnia result is “(6% to 11%), Headache (25% to 34%), Insomnia (11% to 20%)”; the Nasopharyngitis result is “Respiratory: Nasopharyngitis (seasonal affective disorder, 13%),”. For the same molecule, the Nausea is recorded as 10%), Nausea (13% to 18%), Xerostomia (17% to 26%); the Pharyngitis result is reported as “Pharyngitis (major depressive disorder, 3% to 11%), Upper”; the Seizure entry is “Neurologic: Seizure (major depressive disorder, 0.1% to 0.4%)”; the Tachycardia result was “Cardiovascular: Tachycardia (major depressive disorder, 11%)”. The Upper respiratory infection result is on record as “respiratory infection (seasonal affective disorder, 9%)”; the Weight gain result is listed as “Endocrine metabolic: Weight gain (2% to 9%), Weight loss (major”; the Weight loss result is “depressive disorder, 14% to 19%)”; the Xerostomia is 10%), Nausea (13% to 18%), Xerostomia (17% to 26%).
With `O=C1CC2(CCCC2)CC(=O)N1CCCCN1CCN(c2ncccn2)CC1` [Buspirone (Buspar)], the Cerebrovascular accident entry is listed as “Neurologic: Cerebrovascular accident (less than 0.1%)”; the Congestive heart failure result is listed as “Cardiovascular: Congestive heart failure (less than 0.1%),”; the Dizziness result is “Neurologic: Dizziness (12%), Headache (6%), Somnolence (10%)”; the Feeling nervous entry is given as “Psychiatric: Feeling nervous (5%)”. For the same molecule, the Headache entry is listed as “Neurologic: Dizziness (12%), Headache (6%), Somnolence (10%)”; the Myocardial infarction entry is “Myocardial infarction (less than 0.1%)”; the Nausea result was “Gastrointestinal: Nausea (8%)”; the Somnolence entry was “Neurologic: Dizziness (12%), Headache (6%), Somnolence (10%)”.
Regarding `CN[C@H]1CC[C@@H](c2ccc(Cl)c(Cl)c2)c2ccccc21` [Sertraline (Zoloft)], the Abnormal ejaculation entry is reported as “Reproductive: Abnormal ejaculation (7% to 19%), Reduced libido”; the Constipation entry is on record as “Gastrointestinal: Constipation (3% to 8%), Diarrhea (13% to 24%),”; the Diarrhea result is “Gastrointestinal: Constipation (3% to 8%), Diarrhea (13% to 24%),”; the Dizziness entry is “Neurologic: Dizziness (6% to 17%), Headache (25%), Insomnia”. For the same molecule, the Fatigue entry is given as “Other: Fatigue (10% to 16%)”; the Headache result was “Neurologic: Dizziness (6% to 17%), Headache (25%), Insomnia”; the Indigestion result is “Indigestion (6% to 13%), Nausea (13% to 30%), Nausea and”; the Insomnia result is listed as “(12% to 28%), Somnolence (2% to 15%), Tremor (5% to 11%)”. Further, the Nausea result is “Indigestion (6% to 13%), Nausea (13% to 30%), Nausea and”; the Nausea and vomiting result is listed as “vomiting (2% to 30%)”; the Reduced libido result was “(up to 11%)”; the Somnolence entry is “(12% to 28%), Somnolence (2% to 15%), Tremor (5% to 11%)”. Also, the Tremor entry is given as “(12% to 28%), Somnolence (2% to 15%), Tremor (5% to 11%)”.
Regarding `C[C@@H](Cc1ccccc1)NC(=O)[C@@H](N)CCCCN` [Lisdexamfetamine (Vyvanse)], the Anxiety result is on record as “Psychiatric: Anxiety (Adults, 5% to 6%), Irritability (pediatrics,”; the “Common side effects, listed without incidence” value is on record as “Endocrine metabolic: Decreased body growth, Weight decreased”; the Diarrhea entry is listed as “Gastrointestinal: Diarrhea (adults, 7%), Loss of appetite (adults, 8%”; the Irritability was 10%). The Rash entry is “Dermatologic: Rash (pediatrics, 3%)”; the Upper abdominal pain is recorded as 6%), Upper abdominal pain (pediatrics, 12%), Vomiting; the Vomiting entry was “(pediatrics, 9%), Xerostomia (Adults, 26% to 36%; pediatrics, 4%”; the Weight decreased result is “(pediatrics, 9%)”. In addition, the Xerostomia entry is on record as “(pediatrics, 9%), Xerostomia (Adults, 26% to 36%; pediatrics, 4%”.
